Some test systems named below: K562; SF-295; SK-MEL-2; SNB-19; HCC 2998; TK-10; NCI-H226; HCT-15; DLD-1; SK-MEL-28; HL-60; SN12C; UACC-62; MCF7; PC-3; IGROV-1; HOP-62; HOP-92; DMS-273; KM-20L2.
Common to all, as to assay: NCI tumour cell line growth inhibition, 48 h

Structures are written as SMILES.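 Test compounds were applied to cells in 96-well plates for 48 hours at 5 doses. GI50 marks 50% less growth.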 Active and inactive are the calls of the source. Rule as the data show it: active = GI50 up to about 1.1 µM and inactive = higher.

Consider `O=C(NN1C(=O)C(Cl)C1c1ccccc1Cl)c1ccccc1O` (centres undefined), for which the GI50 with K562, with SF-295, with SK-MEL-2, in the assay on SNB-19, with HCC 2998 and in the assay on TK-10 was > 100 µM (inactive) each time. In addition, the GI50 was > 100 µM (inactive) in the assay on NCI-H226; over 100 µM with HCT-15; > 100 µM (inactive) in the assay on DLD-1; > 100 µM (inactive) in the assay on SK-MEL-28; > 100 µM (inactive) in the assay with HL-60; > 100 µM (inactive) in the assay on SN12C. Further, the GI50 with UACC-62 was > 100 µM (inactive).
`CCCCCCOc1ccc(NC2=C(Cl)C(=O)c3cccnc3C2=O)cc1`: the GI50 in the assay with K562 is 1.39 µM (inactive); in the assay on SF-295, 3.65 µM (inactive); in the assay on SK-MEL-2, 1.59 µM (inactive); in the assay with MCF7 it was 1.21 µM (inactive); in the assay on SNB-19, 2.7 µM (inactive); in the assay with HCC 2998, 1.56 µM (inactive). Also, the GI50 is 2.41 µM (inactive) in the assay with PC-3; 3.3 µM (inactive) in the assay on TK-10; 1.74 µM (inactive) in the assay on NCI-H226; 1.79 µM with HCT-15; 1.88 µM (inactive) in the assay with IGROV-1; 2.17 µM (inactive) in the assay on HOP-62. The GI50 was 2.13 µM (inactive) with SK-MEL-28; 1.15 µM (inactive) in the assay with HL-60; 1.68 µM (inactive) with SN12C; 2.02 µM (inactive) with HOP-92; 1.07 µM (active) with UACC-62.
As for `CCC(=O)C(C(=O)CC)c1c(OC(=O)c2ccccc2)ccc(O)c1C(=O)OC`, the GI50 in the assay on K562, in the assay on SF-295, in the assay on SK-MEL-2, with SNB-19, in the assay with DMS-273 and with TK-10 was > 100 µM (inactive) throughout. The GI50 with NCI-H226 is > 100 µM (inactive); with HCT-15, over 100 µM; with IGROV-1, > 100 µM (inactive); in the assay on HOP-62 it was > 100 µM (inactive); with SK-MEL-28, > 100 µM (inactive); in the assay on HL-60, > 100 µM (inactive). In addition, the GI50 in the assay on SN12C, in the assay on HOP-92, in the assay with KM-20L2 and with UACC-62 was > 100 µM (inactive) throughout.
Take `CCCCc1c2c(nc3c1CCC/C3=C\c1ccccc1)C(=O)CCC2`: the GI50 in the assay on K562 was 18.2 µM (inactive); with SF-295, 21.2 µM (inactive); in the assay with SK-MEL-2, 17.1 µM (inactive); in the assay with SNB-19, 20.1 µM (inactive); in the assay with HCC 2998, 20.3 µM (inactive); in the assay with DMS-273, 26.1 µM (inactive). Also, the GI50 in the assay on TK-10 was 24.5 µM (inactive); in the assay on NCI-H226 it was 18.4 µM (inactive); in the assay on HCT-15, 21.8 µM; in the assay on IGROV-1 it was 18.6 µM (inactive); in the assay on HOP-62 it was 20.9 µM (inactive); in the assay with SK-MEL-28, 19.8 µM (inactive). Also, the GI50 in the assay on HL-60 was 22.2 µM (inactive); with SN12C it was 19.6 µM (inactive); in the assay on HOP-92, 22 µM (inactive); in the assay on KM-20L2, 22.6 µM (inactive); in the assay on UACC-62, 22.6 µM (inactive).
Turning to `c1cncc(CSc2nc3ccccc3nc2-c2cccs2)c1`, the GI50 in the assay with K562 is 39.8 µM (inactive); in the assay with SF-295, > 100 µM (inactive); in the assay with SK-MEL-2, 87.1 µM (inactive); with SNB-19, 77.6 µM (inactive); with HCC 2998, 86.1 µM (inactive); in the assay on DMS-273, > 100 µM (inactive). The GI50 is > 100 µM (inactive) with TK-10; 70 µM (inactive) with NCI-H226; 81.1 µM in the assay on HCT-15; > 100 µM (inactive) in the assay with DLD-1; 71.3 µM (inactive) in the assay on HOP-62; > 100 µM (inactive) in the assay with SK-MEL-28. The GI50 in the assay with HL-60 is 13 µM (inactive); with SN12C, 77.1 µM (inactive).
Turning to `Cc1ccc2nc(/C=N/c3ccc(Cl)cc3)cc(C)c2c1`, the GI50 is 0.147 µM (active) in the assay with K562; 0.798 µM (active) in the assay with SF-295; 25.8 µM (inactive) in the assay on SK-MEL-2; 4.7 µM (inactive) with MCF7; 27.6 µM (inactive) with SNB-19; 0.574 µM (active) in the assay on HCC 2998. In addition, the GI50 with PC-3 is 1.9 µM (inactive); in the assay with TK-10, 2.9 µM (inactive); with NCI-H226, 18.4 µM (inactive); in the assay on HCT-15 it was 0.027 µM; in the assay on IGROV-1, 0.989 µM (active); with HOP-62, 2.26 µM (inactive). Besides, the GI50 in the assay on SK-MEL-28 was 13.4 µM (inactive); in the assay with HL-60, 1.14 µM (inactive); in the assay with SN12C, 5.21 µM (inactive); in the assay with HOP-92, 18.6 µM (inactive); in the assay on UACC-62 it was 0.133 µM (active).
Turning to `OCCNCO`, the GI50 in the assay with K562, with SF-295, in the assay with SK-MEL-2, in the assay on SNB-19, with DMS-273 and with TK-10 was > 100 µM (inactive) in each case. For the same compound, the GI50 with NCI-H226 was > 100 µM (inactive); in the assay with HCT-15, over 100 µM; in the assay with IGROV-1, > 100 µM (inactive); in the assay with HOP-62, > 100 µM (inactive); in the assay with SK-MEL-28, > 100 µM (inactive); in the assay on HL-60 it was 46.8 µM (inactive). The GI50 in the assay with SN12C, with HOP-92, in the assay with KM-20L2 and in the assay with UACC-62 was > 100 µM (inactive) in each case.
For `CCOC(=O)C1=C(C)NC2=C(C(=O)N(c3ccccc3)C2c2ccccc2)C1c1ccccc1` (centres undefined), the GI50 is 29.9 µM (inactive) with K562; > 10 µM (inactive) with SF-295; 17.4 µM (inactive) in the assay with SK-MEL-2; 17.7 µM (inactive) with HCC 2998; 18.9 µM (inactive) in the assay on TK-10; 19.9 µM (inactive) with NCI-H226. Also, the GI50 with HCT-15 was 16 µM; in the assay with IGROV-1, 15.4 µM (inactive); with DLD-1, 16.5 µM (inactive); with HOP-62, 17.1 µM (inactive); with SK-MEL-28, 17.7 µM (inactive); in the assay with HL-60, 26.1 µM (inactive). Further, the results for the GI50 with SN12C, in the assay with HOP-92 and in the assay with UACC-62 were 17.9 µM (inactive), 11.2 µM (inactive) and 12.6 µM (inactive), respectively.
Regarding `Cc1nn(-c2ccccc2)c(-c2ccccc2[N+](=O)[O-])c1CC#N`, the GI50 in the assay with K562 is 59.2 µM (inactive); with SF-295 it was > 100 µM (inactive); in the assay on SK-MEL-2 it was > 100 µM (inactive); in the assay with SNB-19 it was > 100 µM (inactive); in the assay with HCC 2998, > 100 µM (inactive); with DMS-273, > 100 µM (inactive). For the same compound, the GI50 in the assay with TK-10 was > 100 µM (inactive); with HCT-15 it was over 100 µM; in the assay with IGROV-1, > 100 µM (inactive); in the assay on HOP-62, > 100 µM (inactive); in the assay on SK-MEL-28, > 100 µM (inactive); with HL-60, 69.5 µM (inactive). For the same compound, the GI50 in the assay with SN12C was > 100 µM (inactive); in the assay on HOP-92 it was 27.8 µM (inactive); with KM-20L2, > 100 µM (inactive); with UACC-62, 78.5 µM (inactive).
Consider `CC(C)(/N=N/C(C)(C)C(=N)N)C(=N)N`, for which the GI50 in the assay on K562, with SF-295, in the assay on SK-MEL-2, in the assay on MCF7, with SNB-19 and in the assay with HCC 2998 was > 100 µM (inactive) each time. The GI50 was > 100 µM (inactive) with PC-3; > 100 µM (inactive) in the assay with TK-10; > 100 µM (inactive) in the assay with NCI-H226; over 100 µM in the assay with HCT-15; > 100 µM (inactive) in the assay on IGROV-1; > 100 µM (inactive) in the assay with HOP-62. In addition, the GI50 with SK-MEL-28, in the assay on HL-60, in the assay with SN12C, in the assay on HOP-92 and in the assay with UACC-62 was > 100 µM (inactive) throughout.
As to `CCOC(=O)/C=C(/C(=O)OCC)n1cc(C)c(=O)[nH]c1=O`, the GI50 is 1.9 µM (inactive) with K562; 17.3 µM (inactive) in the assay on SF-295; 7 µM (inactive) in the assay on SK-MEL-2; 3.89 µM (inactive) in the assay with MCF7; 17.3 µM (inactive) in the assay with SNB-19; 5.71 µM (inactive) in the assay with HCC 2998. In addition, the GI50 with PC-3 was 8.15 µM (inactive); in the assay with TK-10 it was 2.52 µM (inactive); in the assay with NCI-H226, 5.46 µM (inactive); with HCT-15, 2.04 µM; with IGROV-1, 5.36 µM (inactive); in the assay with HOP-62, 18.9 µM (inactive). The GI50 in the assay with SK-MEL-28 was 4.78 µM (inactive); with HL-60 it was 1.67 µM (inactive); in the assay with SN12C, 5.06 µM (inactive); with HOP-92, 1.71 µM (inactive); with UACC-62, 5.14 µM (inactive).
For `Cc1cc(C)c2c(O)cc(-c3ccc4ccccc4c3)nc2n1`, the GI50 with K562 was 2.05 µM (inactive); in the assay on SF-295 it was 16.2 µM (inactive); with SK-MEL-2, 13.6 µM (inactive); in the assay on MCF7, 15.5 µM (inactive); with SNB-19 it was 30.9 µM (inactive); with HCC 2998, 16.3 µM (inactive). Besides, the GI50 with PC-3 was 10.2 µM (inactive); with TK-10 it was 31 µM (inactive); in the assay on NCI-H226, 19.5 µM (inactive); with HCT-15, 6.1 µM; with IGROV-1, 12.6 µM (inactive); in the assay with HOP-62 it was 32.1 µM (inactive). For the same compound, the GI50 in the assay on SK-MEL-28 was > 47.4 µM (inactive); in the assay with HL-60, 3.04 µM (inactive); in the assay on SN12C, 43.7 µM (inactive); in the assay on HOP-92, 11.1 µM (inactive); with UACC-62, 14.7 µM (inactive).
On to `CCCCCNC(=O)c1cc2cc(CCl)ccc2oc1=O`, for which the GI50 with K562 was 5.62 µM (inactive); with SF-295 it was 6.56 µM (inactive); with SK-MEL-2, 3.1 µM (inactive); in the assay on MCF7 it was 5.97 µM (inactive); with SNB-19 it was 15.9 µM (inactive); in the assay on HCC 2998, 1.77 µM (inactive). Also, the GI50 with PC-3 is 1.33 µM (inactive); in the assay with TK-10, 1.52 µM (inactive); with NCI-H226 it was 14.2 µM (inactive); in the assay on HCT-15, 1.95 µM; in the assay on IGROV-1, 4.71 µM (inactive); in the assay with HOP-62 it was 5.69 µM (inactive). For the same compound, the GI50 in the assay with SK-MEL-28 is 9.42 µM (inactive); with HL-60, 1.9 µM (inactive); with SN12C, 1.72 µM (inactive); with HOP-92, 1.95 µM (inactive); in the assay on UACC-62, 2.45 µM (inactive).

These data come from ChEMBL document CHEMBL1201862, “PubChem BioAssay data set” (2004).
